Results: US5428038A, “Benzopyranones, a method for producing them and uses therefor” (Dr. Willmar Schwabe GmbH & Co., priority 1991, dated 1995)
Read-outs that look alike come from different tables or passages of the source.

How the values were obtained:
[1] = test system: ovalbumin-induced anaphylactic paw edema; test: Passive rat paw anaphylaxy (inhibition of edema volume; antiallergic and anti-inflammatory); format: in vivo, male Sprague-Dawley rats; conditions: Rattus norvegicus, po; 25 mg/kg p.o. 1 h before test; read-out: Protective action (percentage inhibition of edema volume)
Protocol: The determination of the antiallergic and anti-inflammatory properties of the compounds in accordance with the invention was using a passive rat paw anaphylaxy model.
Male Sprague-Dawley rats were utilized for all tests. The animals were kept under standardized environmental conditions with free access to food and water. For sensitization to the antigen 100 μl of a mouse antiserum to ovalbumin was injected sublplantarly into the left rear paw. […] The opposite paw was for control injected subplantarly only with 100 μl of the solvent (sterile physiological NaCl solution). Overnight the investigated animals were deprived of food but had water ad lib.
Per group in all tests between 6 and 8 animals were used. One hour later the anaphylactic reaction was caused by the intravenous injection of 10 mg/10 ml/kg ovalbumin in physiological NaCl solution. […] The edema volume was calculated from the difference between the values of the two paws. The antiallergic action is in this case expressed as a percentage inhibition of the edema volume of the animals in the test group as compared with control groups undergoing parallel investigation. […] The determination of the ED50 values was performed by linear regression after log transformation of the administered doses, at least three dosage rates being employed.

NMDA-induced death = test: NMDA test (25 mg/kg i.v.), prevention of NMDA-induced death (neuroprotective efficacy); format: in vivo, male NMRI mice; conditions: Mus musculus, po, NMDA 25 mg/kg i.v.; for ED50: 1 h, dose protecting 50% of animals against NMDA-induced death one hour after application; for responders at 25 mg/kg: 25 mg/kg p.o. 1 h before test; for responders at 100 mg/kg: 100 mg/kg p.o. 1 h before test; for responders at 50 mg/kg: 50 mg/kg p.o. 1 h before test; for responders at 20 mg/kg: 20 mg/kg p.o. 1 h before test
Protocol: (§1) In order to determine the neuroprotective and anticonvulsive activity of the compounds in accordance with the invention of the general formula I, two slightly different methods were employed as follows: […]
(§2) 1. In order to determine the neuroprotective efficacy NMDA at a rate of 25 mg/kg/10 ml was administered intravenously to male NMRI mice with a body weight of 20 to 25 g. As a consequence of this application the animals suffer clonic and partly tonic convulsions, which lead to death. As a criterion for the efficacy of the investigated compounds prevention of death is used.
(§3) All animals used in the investigations had free access to food and water prior to the experiments. The test and reference substances were all administered as a suspension in 0.2% agar or water, partly by the intermediary of solution promoters such as for instance PEG-400, perorally using an esophageal probe. Control animals received the same volumes of the solvent with optional solution promoters. One hour after the application of the substance NMDA was administered intravenously and the animals observed for the occurrence of convulsions.
In table 1 the results of the tests (NMDA 25 mg i.v.) performed in accordance with method 1 are compiled with dosages of 5-100 mg of the compounds in accordance with the invention per kg of body weight as compared with known NMDA-antagonists. As a percentage efficacy the percentage of surviving animals is used.
(§4) The determination of the ED50 values was performed in accordance with the method described in Lichtfield and Wilcoxon, J. Pharmacol. exp. Therapeut. 96, 99 (1949) in each case with 4 to 5 groups of 10 animals per dosage rate.

[2] = test system: NMDA-induced tonic convulsions; test: NMDA test (40 mg/kg i.v.), protection against tonic convulsions (antiepileptic efficacy); format: in vivo, male NMRI mice; conditions: Mus musculus, po; for responders at 25 mg/kg: 25 mg/kg p.o. 1 h before test
Protocol: as §1, §2
2. In order to ascertain the antiepileptic efficacy the same method was utilized with an NMDA dosage of 40 mg/kg/10 ml i.v. This higher NMDA dosage led in the case of all animals to the occurrence of tonic convulsions.
as §3
In table 2 the results of the tests (NMDA 40 mg i.v.) performed in accordance with method 2 are compiled with dosages of 5-25 mg of the compounds in accordance with the invention per kg of body weight in comparison with known anticonvulsants and antiepileptics. As a percentage efficacy the percentage of animals is used which in the test were protected against the occurrence of tonic convulsions.
as §4

[3] = read-out: Protective action (percentage of surviving animals)
[4] = NMDA 40 mg/kg i.v., read-out: Protective action (percentage of animals protected against tonic convulsions)
[5] = 5 mg/kg p.o. 1 h before test, NMDA 40 mg/kg i.v., read-out: Protective action (percentage of animals protected against tonic convulsions)
[6] = 50 mg/kg p.o. 1 h before test, NMDA 40 mg/kg i.v., read-out: Protective action (percentage of animals protected against tonic convulsions)
[7] = 1 h, read-out: Protective action (percentage of animals protected against tonic convulsions)

For `COc1cc2oc(=O)ccc2cc1OCC(O)CN1CCN(c2ccccc2)CC1` (racemic) [Example 18, (±)-7-methoxy-6-[2-hydroxy-3-(4-phenyl-1-piperazinyl)propoxy]-2H-1-benzopyran-2-one], the inhibition in vivo at 25 mg/kg [1] was 56%, the ED50 (NMDA-induced death) was 6.4 mg/kg and the responders at 25 mg/kg (NMDA-induced death; [3]) was 100%. It also gave a responders at 25 mg/kg [2, 4] of 100%.

Work on `COc1cc2oc(=O)ccc2cc1OCC(O)CN1CCN(c2cccc(Cl)c2)CC1` (racemic) [Example 19, (±)-6-{3-[4-(3-chlorophenyl)-1-piperazinyl]-2-hydroxypropoxy}-7-methoxy-2H-1-benzopyran-2-one] yielded an inhibition in vivo at 25 mg/kg [1] of 32%, an ED50 (NMDA-induced death) of 8.3 mg/kg and a responders at 25 mg/kg (NMDA-induced death; [3]) of 100%. The responders at 25 mg/kg [2, 4] was 87.5%.

`COc1cc2ccc(=O)oc2cc1OCC(O)CN1CCC(c2ccccc2)CC1` (racemic) [Example 23, (±)-7-[2-hydroxy-3-(4-phenyl-1-piperidinyl)-propoxy]-6-methoxy-2H-1-benzopyran-2-one] was tested, and the ED50 (NMDA-induced death) was 28.5 mg/kg, the responders at 100 mg/kg (NMDA-induced death; [3]) was 100% and the responders at 5 mg/kg [2, 5] was 12.5%.

`CCOc1cc2ccc(=O)oc2cc1OCCCN1CCN(c2ccccc2)CC1` [Example 4, 6-ethoxy-7-[3-(4-phenyl-1-piperazinyl)propoxy]-2H-1-benzopyran-2-one] showed an inhibition in vivo at 25 mg/kg [1] of 79%, an ED50 (NMDA-induced death) of 1.7 mg/kg and a responders at 25 mg/kg (NMDA-induced death; [3]) of 100%. The responders at 5 mg/kg [2, 5] was 62.5%.

With `COc1cc2oc(=O)ccc2cc1OCCCN1CCN(c2cccc(C(F)(F)F)c2)CC1` [Example 6, 7-methoxy-6-{3-[4-(3-trifluoromethylphenyl)-1-piperazinyl]propoxy}-2H-1-benzopyran-2-one] the ED50 (NMDA-induced death) was 13.5 mg/kg, the responders at 25 mg/kg (NMDA-induced death; [3]) was 87.5% and the responders at 25 mg/kg [2, 4] was 0%.

With `COc1cc2ccc(=O)oc2cc1OCCCN1CCC(c2ccccc2)CC1` [Example 10, 6-methoxy-7-[3-(4-phenyl-1-piperidinyl)propoxy]-2H-1-benzopyran-2-one] the inhibition in vivo at 25 mg/kg [1] was 22%, the ED50 (NMDA-induced death) was 23 mg/kg and the responders at 25 mg/kg (NMDA-induced death; [3]) was 75%. The responders at 5 mg/kg [2, 5] was 25%.

`COc1cc2oc(=O)cc(C)c2cc1OCCCN1CCC(c2ccccc2)CC1` [Example 27, 7-methoxy-4-methyl-6-[3-(4-phenyl-1-piperidinyl)propoxy]-2H-1-benzopyran-2-one] showed an inhibition in vivo at 25 mg/kg [1] of 40% and a responders at 25 mg/kg (NMDA-induced death; [3]) of 50%.

`COc1cc2oc(=O)c(C)c(C)c2cc1OCCCN1CCN(c2ccccc2)CC1` [Example 28, 7-methoxy-3,4-dimethyl-6-[3-(4-phenyl-1-piperazinyl)propoxy]-2H-1-benzopyran-2-one] was tested, and the inhibition in vivo at 25 mg/kg [1] was 72% and the responders at 25 mg/kg (NMDA-induced death; [3]) was 87.5%.

In the case of `COc1cc2oc(=O)cc(-c3ccccc3)c2cc1OCCCN1CCN(c2ccccc2)CC1` [Example 39, 7-methoxy-4-phenyl-6-[3-(4-phenyl-1-piperazinyl)propoxy]-2H-1-benzopyran-2-one], the inhibition in vivo at 25 mg/kg [1] is reported as 26% and the responders at 25 mg/kg (NMDA-induced death; [3]) is reported as 62.5%.

For `COc1cc2oc(=O)cc(-c3ccccc3)c2cc1OCCCN1CCC(c2ccccc2)CC1` [Example 40, 7-methoxy-4-phenyl-6-[3-(4-phenyl-1-piperidinyl)propoxy]-2H-1-benzopyran-2-one], the inhibition in vivo at 25 mg/kg [1] was 27% and the responders at 100 mg/kg (NMDA-induced death; [3]) was 37.5%.

Compound `COc1cc2oc(=O)c3c(c2cc1OCCCN1CCN(c2ccccc2)CC1)CCCC3` [Example 42, 7,8,9,10-tetrahydro-3-methoxy-2-[3-(4-phenyl-1-piperazinyl)propoxy]-6H-dibenzo[b,d]pyran-6-one] has an inhibition in vivo at 25 mg/kg [1] of 39% and a responders at 25 mg/kg (NMDA-induced death; [3]) of 100%.

Work on `COc1cc2oc(=O)c3c(c2cc1OCCCN1CCC(c2ccccc2)CC1)CCCC3` [Example 43, 7,8,9,10-tetrahydro-3-methoxy-2-[3-(4-phenyl-1-piperidinyl)propoxy]-6H-dibenzo[b,d]pyran-6-one] yielded an inhibition in vivo at 25 mg/kg [1] of 19%, an ED50 (NMDA-induced death) of 5.5 mg/kg and a responders at 25 mg/kg (NMDA-induced death; [3]) of 100%. It also gave a responders at 5 mg/kg [2, 5] of 37.5%.

`COc1cc2oc(=O)c3c(c2cc1OCCCN1CCN(c2ccccc2)CC1)CCC3` [Example 45, 2,3-dihydro-7-methoxy-8-[3-(4-phenyl-1-piperazinyl)propoxy]cyclopenta[c][1]benzopyran-4(1H)-one] gave an inhibition in vivo at 25 mg/kg [1] of 69%, an ED50 (NMDA-induced death) of 1.2 mg/kg and a responders at 25 mg/kg (NMDA-induced death; [3]) of 100%.

For `COc1cc2oc(=O)c3c(c2cc1OCCCCN1CCN(c2ccccc2)CC1)CCC3` [Example 46, 2,3-dihydro-7-methoxy-8-[4-(4-phenyl-1-piperazinyl)butyloxy]cyclopenta[c][1]benzopyran-4(1H)-one], the inhibition in vivo at 25 mg/kg [1] was 35%, the ED50 (NMDA-induced death) was 3.9 mg/kg and the responders at 25 mg/kg (NMDA-induced death; [3]) was 100%.

`COc1cc2oc(=O)c3c(c2cc1OCCN1CCC(c2ccccc2)CC1)CCC3` [Example 48, 2,3-dihydro-7-methoxy-8-[2-(4-phenyl-1-piperidinyl)ethoxy]cyclopenta[c][1]benzopyran-4(1H)-one] was tested, and the inhibition in vivo at 25 mg/kg [1] was 35%, the ED50 (NMDA-induced death) was 4 mg/kg and the responders at 5 mg/kg (NMDA-induced death; 5 mg/kg p.o. 1 h before test, read-out: Protective action (percentage of surviving animals)) was 100%.

`COc1cc2oc(=O)c3c(c2cc1OCCCN1CCN(c2ccc(F)cc2)CC1)CCC3` [Example 52, 8-{3-[4-(4-fluorophenyl)-1-piperazinyl]propoxy}-2,3-dihydro-7-methoxy-cyclopenta[c][1]benzopyran-4(1H)-one] gave an inhibition in vivo at 25 mg/kg [1] of 74%, an ED50 (NMDA-induced death) of 1.2 mg/kg and a responders at 25 mg/kg (NMDA-induced death; [3]) of 100%.

In the case of `NC(=O)N1c2ccccc2C=Cc2ccccc21` [carbamazepin], the responders at 50 mg/kg [2, 6] is reported as 75%.

`COc1ccc2c(c1)[C@]13CCCC[C@@H]1[C@H](C2)N(C)CC3` [dextromethorphan, reference compound] gave an ED50 (NMDA-induced death) of 66.7 mg/kg, a responders at 50 mg/kg (NMDA-induced death; [3]) of 50% and an ED50 ([2]; 1 h) of 58 mg/kg. The responders at 100 mg/kg [2, 7] was 100%.

For `CN1C(=O)CN=C(c2ccccc2)c2cc(Cl)ccc21` [diazepam], the responders at 5 mg/kg [2, 7] was 25%.

Work on `O=C1NC(=O)C(c2ccccc2)(c2ccccc2)N1` [diphenylhydantoin] yielded a responders at 50 mg/kg [2, 6] of 50%.

`Fc1ccc(C(c2ccc(F)cc2)N2CCN(C/C=C/c3ccccc3)CC2)cc1` [flunarizin, reference compound] was tested, and the ED50 (NMDA-induced death) was 22.8 mg/kg, the responders at 50 mg/kg (NMDA-induced death; [3]) was 100% and the responders at 50 mg/kg [2, 6] was 100%.

`COCCOC(=O)C1=C(C)NC(C)=C(C(=O)OC(C)C)C1c1cccc([N+](=O)[O-])c1` (stereo not shown) [nimodipin, reference compound] gave an ED50 (NMDA-induced death) of 18.5 mg/kg, a responders at 20 mg/kg (NMDA-induced death; [3]) of 87.5% and an ED50 ([2]; 1 h, dose protecting 50% of animals against tonic convulsions one hour after application, NMDA 40 mg/kg i.v., read-out: ED50) of 25.4 mg/kg. It also gave a responders at 20 mg/kg ([2]; 20 mg/kg p.o. 1 h before test, NMDA 40 mg/kg i.v., read-out: Protective action (percentage of animals protected against tonic convulsions)) of 25%.

`CCC1(c2ccccc2)C(=O)NC(=O)NC1=O` [phenobarbital] gave a responders at 50 mg/kg [2, 7] of 62.5%.

Work on `CCCC(CCC)C(=O)O` [valproinic acid] yielded a responders at 250 mg/kg [2, 7] of 87.5%.

Compound `COc1ccc(CCN(C)CCCC(C#N)(c2ccc(OC)c(OC)c2)C(C)C)cc1OC` (stereo not shown) [verapamil, reference compound] has an ED50 (NMDA-induced death) of 17.3 mg/kg, a responders at 20 mg/kg (NMDA-induced death; [3]) of 87.5% and a responders at 50 mg/kg [2, 7] of 50%.
